Patent publication US7772180B2, “Hepatitis C virus inhibitors” (Bristol-Myers Squibb Company, priority 2006, dated 2010)
Like-named read-outs stand apart in the source and are kept apart here.

Key:
[1] = tested on: HCV replicon (strain 1b) in HUH-7 cells; experiment: HCV replicon FRET assay; format: cell-based, Hepatitis C virus; settings: activity range class
[2] = target: T1, HCV NS3/4A protease complex, BMS strain (UniProt P27958, species not given/STRAIN_BMS); experiment: FRET peptide assay to monitor HCV NS3/4A proteolytic activity (BMS strain); format: biochemical, Hepatitis C virus (genotype 1a); settings: read-out: HCV Protease (IC50); NS3/4A BMS strain; activity range class
T1 construct: other: NS3/4A BMS strain; activity range class; numeric values, unit not given; said of H77 and J4L6S; fused on or other part: A three-lysine solubilising tail at the C-terminus of NS4A; A His tag is implied by the pET21b vector and Ni-NTA purification; Both are printed for the H77 and J4L6S constructs and apply to BMS by inference
Method in brief: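 Inhibition measured by real-time fluorescence increase as the protease cleaves RET S1 FRET depsipeptide (2 μM final). Enzyme: >90% pure BMS-strain (1a) NS3/4A at 2-3 nM final, or 300 pM with 50 μg/ml BSA for potent compounds. Buffer: 50 mM HEPES pH 7.5, 0.15 M NaCl, 0.1% Triton, 15% glycerol, 10 mM βME.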

[3] = Hepatitis C virus, Huh-7, read-out: HCV Pro Replicon (EC50), HCV replicon cell assay
[4] = read-out: HCV Pro Replicon (EC50), HCV replicon cell assay

T1 sequence (P27958 1027-1657, change not shown, one chain of several): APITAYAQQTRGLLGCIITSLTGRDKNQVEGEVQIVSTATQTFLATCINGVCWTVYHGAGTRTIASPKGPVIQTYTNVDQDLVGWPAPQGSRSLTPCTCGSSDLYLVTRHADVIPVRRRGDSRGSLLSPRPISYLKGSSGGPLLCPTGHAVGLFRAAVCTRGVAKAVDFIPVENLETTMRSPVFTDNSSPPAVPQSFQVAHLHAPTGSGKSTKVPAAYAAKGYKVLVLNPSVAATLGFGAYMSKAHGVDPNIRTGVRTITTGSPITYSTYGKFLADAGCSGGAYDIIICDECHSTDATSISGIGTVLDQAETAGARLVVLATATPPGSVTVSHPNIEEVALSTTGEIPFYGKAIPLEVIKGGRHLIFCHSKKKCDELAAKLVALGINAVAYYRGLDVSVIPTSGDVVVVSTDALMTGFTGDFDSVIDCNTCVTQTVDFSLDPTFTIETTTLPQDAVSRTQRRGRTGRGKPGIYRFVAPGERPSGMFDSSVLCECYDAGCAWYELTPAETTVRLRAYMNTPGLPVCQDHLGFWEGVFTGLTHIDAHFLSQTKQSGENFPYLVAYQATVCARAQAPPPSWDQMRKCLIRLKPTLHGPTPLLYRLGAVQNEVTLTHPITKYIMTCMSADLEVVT

C=C[C@@H]1C[C@]1(NC(=O)[C@@H]1C[C@@H](Oc2ncc(OC)c3ccc(Cl)cc23)CN1C(=O)[C@@H](Nc1ccc(S(=O)(=O)N(C)C)cc1)C(C)(C)C)C(=O)NS(=O)(=O)C1CC1 [224 first isomer, N-(4-(dimethylsulfamoyl)phenyl)-3-methyl-L-valyl-(4R)-4-((7-chloro-4-methoxy-1-isoquinolinyl)oxy)-N-((1R,2S)-1-((cyclopropylsulfonyl)carbamoyl)-2-vinylcyclopropyl)-L-prolinamide]
EC50 [1, 3]: 100 to 1000 nM | IC50 [2]: 0.6 to 20 nM

C=C[C@@H]1C[C@]1(NC(=O)[C@@H]1C[C@@H](Oc2nccc3cc(OC)ccc23)CN1C(=O)[C@@H](Nc1ccccn1)C(C)(C)C)C(=O)NS(=O)(=O)C1CC1 [12 first isomer, 3-methyl-N-2-pyridinyl-L-valyl-(4R)—N-((1R,2S)-1-((cyclopropylsulfonyl)carbamoyl)-2-vinylcyclopropyl)-4-((6-methoxy-1-isoquinolinyl)oxy)-L-prolinamide]
EC50 [1, 3]: 3 to 100 nM | IC50 [2]: 0.6 to 20 nM

C=C[C@@H]1C[C@]1(NC(=O)[C@@H]1C[C@@H](Oc2nccc3cc(OC)ccc23)CN1C(=O)C(Nc1cc(C)ccn1)C(C)C)C(=O)NS(=O)(=O)C1CC1 (single isomer, unassigned) [Compound 10]
EC50 [1, 3]: 3 to 100 nM | IC50 [2]: 0.6 to 20 nM

C=C[C@@H]1C[C@]1(NC(=O)[C@@H]1C[C@@H](Oc2ncc(OC)c3ccc(Cl)cc23)CN1C(=O)[C@@H](Nc1ccc(S(=O)(=O)NCC)cc1)C(C)(C)C)C(=O)NS(=O)(=O)C1CC1 [223 first isomer, N-(4-(ethylsulfamoyl)phenyl)-3-methyl-L-valyl-(4R)-4-((7-chloro-4-methoxy-1-isoquinolinyl)oxy)-N-((1R,2S)-1-((cyclopropylsulfonyl)carbamoyl)-2-vinylcyclopropyl)-L-prolinamide]
EC50 [1, 3]: 100 to 1000 nM | IC50 [2]: 0.6 to 20 nM

C=C[C@@H]1C[C@]1(NC(=O)[C@@H]1C[C@@H](Oc2nccc3cc(OC)ccc23)CN1C(=O)C(Nc1cc(C(F)(F)F)ccn1)C(C)C)C(=O)NS(=O)(=O)C1CC1 (single isomer, unassigned) [Compound 9]
EC50 [1, 3]: 3 to 100 nM | IC50 [2]: 0.6 to 20 nM

C=CCCCCCC(Nc1ccc(OC)nc1)C(=O)N1C[C@H](Oc2ncc(OC)c3ccc(Cl)cc23)C[C@H]1C(=O)N[C@]1(C(=O)NS(=O)(=O)C2CC2)C[C@H]1C=C (stereo partly shown) [Compound 411]
EC50 [1, 4]: 100 to 1000 nM | IC50 [2]: > 200 nM

C=C[C@@H]1C[C@]1(NC(=O)[C@@H]1C[C@@H](Oc2ncc(OC)c3ccc(Cl)cc23)CN1C(=O)[C@H](CC)Nc1nsnc1OCC)C(=O)NS(=O)(=O)C1CC1 [Compound 233A, (4R)-4-((7-chloro-4-methoxy-1-isoquinolinyl)oxy)-N-((1R,2S)-1-((cyclopropylsulfonyl)carbamoyl)-2-vinylcyclopropyl)-1-((2S)-2-((4-ethoxy-1,2,5-thiadiazol-3-yl)amino)butanoyl)-L-prolinamide]
EC50 [1, 3]: 100 to 1000 nM | IC50 [2]: 20 to 200 nM

C=C[C@@H]1C[C@]1(NC(=O)[C@@H]1C[C@@H](Oc2ncc(OC)c3ccc(Cl)cc23)CN1C(=O)[C@@H](Nc1cccc(S(N)(=O)=O)c1)C(C)(C)C)C(=O)NS(=O)(=O)C1CC1 [207 first isomer, 3-methyl-N-(3-sulfamoylphenyl)-L-valyl-(4R)-4-((7-chloro-4-methoxy-1-isoquinolinyl)oxy)-N-((1R,2S)-1-((cyclopropylsulfonyl)carbamoyl)-2-vinylcyclopropyl)-L-prolinamide]
EC50 [1, 3]: 3 to 100 nM | IC50 [2]: 0.6 to 20 nM

C=C[C@@H]1C[C@]1(NC(=O)[C@@H]1C[C@@H](Oc2nccc3cc(OC)ccc23)CN1C(=O)C(Nc1ccccn1)C(C)C)C(=O)NS(=O)(=O)C1CC1 (single isomer, unassigned) [Compound 7]
EC50 [1, 3]: 3 to 100 nM | IC50 [2]: 20 to 200 nM

C=C[C@@H]1C[C@]1(NC(=O)[C@@H]1C[C@@H](Oc2nccc3cc(OC)ccc23)CN1C(=O)C(Nc1ccc(OC)nc1)C(C)(C)C)C(=O)NS(=O)(=O)C1CC1 (single isomer, unassigned) [407 first isomer]
EC50 [1, 3]: 100 to 1000 nM | IC50 [2]: 0.6 to 20 nM

C=C[C@@H]1C[C@]1(NC(=O)[C@@H]1C[C@@H](Oc2nccc3cc(OC)ccc23)CN1C(=O)C(Nc1nc(OC)cc(OC)n1)C(C)C)C(=O)NS(=O)(=O)C1CC1 (mixture of isomers) [Compound 5, N-(4,6-dimethoxy-2-pyrimidinyl)valyl-(4R)—N-((1R,2S)-1-((cyclopropylsulfonyl)carbamoyl)-2-vinylcyclopropyl)-4-((6-methoxy-1-isoquinolinyl)oxy)-L-prolinamide]
EC50 [1, 3]: 100 to 1000 nM | IC50 [2]: 20 to 200 nM

C=C[C@@H]1C[C@]1(NC(=O)[C@@H]1C[C@@H](Oc2ncc(OC)c3ccc(Cl)cc23)CN1C(=O)[C@@H](Nc1cccc(C(=O)NC(C)(C)C)c1)C(C)(C)C)C(=O)NS(=O)(=O)C1CC1 [212 first isomer, N-(3-(tert-butylcarbamoyl)phenyl)-3-methyl-L-valyl-(4R)-4-((7-chloro-4-methoxy-1-isoquinolinyl)oxy)-N-((1R,2S)-1-((cyclopropylsulfonyl)carbamoyl)-2-vinylcyclopropyl)-L-prolinamide]
EC50 [1, 3]: 100 to 1000 nM | IC50 [2]: > 200 nM

C=C[C@@H]1C[C@]1(NC(=O)[C@@H]1C[C@@H](Oc2ncc(OC)c3ccc(Cl)cc23)CN1C(=O)C(Nc1cccc(OC)c1)C(C)(C)C)C(=O)NS(=O)(=O)C1CC1 (single isomer, unassigned) [Compound 201B]
EC50 [1, 3]: 3 to 100 nM | IC50 [2]: 20 to 200 nM

C=CC1CC1(NC(=O)C1CC(Oc2ncc(OC)c3ccc(Cl)cc23)CN1C(=O)C(Nc1ccccc1)C(C)(C)C)C(=O)NS(=O)(=O)C1CC1 (single isomer, unassigned; isomer 3) [213 second isomer]
EC50 [1, 4]: 3 to 100 nM | IC50 [2]: 0.6 to 20 nM
